Results from patent publication US20040235071A1, “Methods and compositions for treating cancer using 15986, 2188, 20743, 9148, 9151, 9791, 44252, 14184, 42461, 8204, 7970, 25552, 21657, 26492, 2411, 15088, 1905, 28899, 63380, 33935, 10480, 12686, 25501, 17694, 15701, 53062, 49908, 21612, 38949, 6216, 46863, 9235, 2201, 6985, 9883, 12238, 18057, …” (Millennium Pharmaceuticals, Inc., priority 2002, published 2004).

Columns and labels:
Assay type in all cases: cell-based, human
15701 mRNA = assay: TaqMan PI3-kinase panel, 15701 mRNA expression; conditions: 48 hours
Description: In an expanded breast cancer tissue panel, 15701 mRNA was expressed at increased levels (2-131 fold) in 14/15 primary breast tumor samples when compared to 4/4 normal breast tissue samples. In a breast cancer cell model panel, 15701 mRNA was expressed at a 4-fold increased level in transformed, activated H-ras-expressing MCF10AT01 cells vs. normal MCF10A cells, and at a 5-fold increased level in transformed, activated H-ras-expressing MCF10AT3B cells when compared to normal MCF10A cells. 15701 mRNA was expressed in many breast tumor cell lines, including MCF-7, T47D, ZR-75 and MDA-MB-468. In the PI3-kinase panel, 15701 mRNA expression was decreased in MDA-MB-468, MCF-7 and LNCaP cells after 48 hours treatment with the PI3-kinase inhibitor LY294002. 15701 mRNA expression in MDA-MB-468 cells decreased 7-fold after 48 hours with LY294002 (115 uM). […]
This example describes the TaqMan™ procedure. The Taqman™ procedure is a quantitative, reverse transcription PCR-based approach for detecting mRNA. […]
(§1) During the PCR reaction, cleavage of the probe separates the reporter dye and the quencher dye, resulting in increased fluorescence of the reporter. Accumulation of PCR products is detected directly by monitoring the increase in fluorescence of the reporter dye. When the probe is intact, the proximity of the reporter dye to the quencher dye results in suppression of the reporter fluorescence. […]

39228 mRNA = assay: TaqMan analysis of the Cox inhibitor study, 39228 mRNA expression in HUVEC; conditions: 40-100 mM, 10 h, relative to a vehicle (DMSO) control
Description: (§2) This example describes the TaqMan™ procedure. The Taqman™ procedure is a quantitative, reverse transcription PCR-based approach for detecting mRNA. The RT-PCR reaction exploits the 5′ nuclease activity of AmpliTaq Gold™ DNA Polymerase to cleave a TaqMan™ probe during PCR. Briefly, cDNA was generated from the samples of interest, e.g., heart, kidney, liver, skeletal muscle, and various vessels, and used as the starting material for PCR amplification. In addition to the 5′ and 3′ gene-specific primers, a gene-specific oligonucleotide probe (complementary to the region being amplified) was included in the reaction (i.e., the Taqman™ probe). […]
as §1

20743 mRNA = assay: Breast cancer cell model panel, 20743 mRNA expression in MCF10A cells
Description: On a breast cancer cell model panel, 20743 mRNA expression in MCF10A cells was increased 4-fold by 8 hrs treatment of 10 ng/ml EGF and was increased 3-fold by 3 hrs treatment with 10 nM IGF1.
as §2, §1

2201 = assay: Breast cancer cell model panel, 2201 in MCF10A cells; conditions: 8 hour treatment, 10 ng/ml
Description: In a breast cancer cell model panel, 2201 is increased 3-fold after an 8 hour treatment of MCF10A cells with 10 ng/ml EGF.
as §2, §1

In the case of `O=c1cc(N2CCOCC2)oc2c(-c3ccccc3)cccc12` [LY294002], the “15701 mRNA expression decrease” value (15701 mRNA; MCF-7 cells, 30 uM) is reported as 16 fold and the “15701 mRNA expression decrease” value (15701 mRNA; MDA-MB-468 cells, 115 uM) is reported as 7 fold.

With `CS(=O)(=O)Nc1ccc([N+](=O)[O-])cc1OC1CCCCC1` [NS398] the “39228 mRNA expression” value (39228 mRNA) was “increased”.

With `CC1=C(CC(=O)O)c2cc(F)ccc2/C1=C\c1ccc([S+](C)[O-])cc1` (stereo not shown) [Sulindac] the “39228 mRNA expression” value (39228 mRNA) was “increased”.

With “EGF: epidermal growth factor (NSDSECPLSHDGYCLHDGVCMYIEALDKYACNCVVGYIGERCQYRDLKWWELR; UniProt P01133 971-1023, looked up)” the “20743 mRNA expression increase” value (20743 mRNA; 8 hrs treatment, 10 ng/ml) was 4 fold and the 2201 increase 2201 was 3 fold.

For “IGF1: growth factor used to treat MCF10A cells”, the “20743 mRNA expression increase” value (20743 mRNA; 3 hrs treatment, 10 nM) was 3 fold.
